Values after ≈ are worked out from the molar mass of the structure shown.
Legend:
Format in all cases: functional
Staphylococcus aureus [1] = experiment: In vitro antibacterial activity against S. a. 213 (Staphylococcus. aureus ATCC 49951)
Enterococcus faecalis [2] = experiment: In vitro antibacterial activity against vancomycin-susceptible E. f. 034 (Enterococcus faecalis ATCC 29212)
Enterococcus faecium [3] = experiment: In vitro antibacterial activity against vancomycin-resistant Enterococcus faecium 154 (Enterococcus faecium ATCC 12202)
Enterococcus faecalis [4] = experiment: In vitro antibacterial activity against vancomycin-susceptible E. f. 153 (Enterococcus faecalis ATCC 29212)
Staphylococcus aureus [5] = experiment: In vitro antibacterial activity against methicillin-resistant S. a. 019 (Staphylococcus aureus ATCC 33591 )
Staphylococcus aureus [6] = experiment: In vitro antibacterial activity against S. a. 035 (Staphylococcus aureus ATCC 29213)
Enterococcus faecium [7] = experiment: In vitro antibacterial activityd against vancomycin-resistant Enterococcus faecium 154 (Enterococcus faecium ATCC 12202)
Staphylococcus aureus [8] = experiment: In vitro antibacterial activityd against methicillin-resistant S. a. 019 (Staphylococcus aureus ATCC 33591 )
Staphylococcus aureus [9] = experiment: In vitro minimum inhibitory concentration of compound against S. a. 035 (Staphylococcus aureus ATCC 29213)

SMILES | MIC (Staphylococcus aureus [1]) [µg/mL] | MIC (Enterococcus faecalis [2]) [µg/mL] | MIC (Enterococcus faecium [3]) [µg/mL] | MIC (Enterococcus faecalis [4]) [µg/mL] | MIC (Staphylococcus aureus [5]) [µg/mL] | MIC (Staphylococcus aureus [6]) [µg/mL] | MIC (Enterococcus faecium [7]) [µg/mL] | MIC (Staphylococcus aureus [8]) [µg/mL] | MIC (Staphylococcus aureus [9]) [µg/mL]
CC(=O)NNC[C@H]1CN(c2ccc(OCCN3CCCCC3)c(F)c2)C(=O)O1 | 64 (≈ 162 µM) | 64 (≈ 162 µM) | 64 (≈ 162 µM) | 64 (≈ 162 µM) | 32 (≈ 81.1 µM) | 64 (≈ 162 µM) | – | – | –
CC(=O)NC[C@H]1CN(c2ccc(N3CCOCC3)c(F)c2)C(=O)O1 [LINEZOLID] | – | – | 2 (≈ 5.93 µM) | – | 1 (≈ 2.96 µM) | – | – | – | –
CC(=O)NNC[C@H]1CN(c2ccc(OCCOCc3ccccc3)c(F)c2)C(=O)O1 | – | 32 (≈ 76.7 µM) | – | 32 (≈ 76.7 µM) | 8 (≈ 19.2 µM) | 16 (≈ 38.3 µM) | 32 (≈ 76.7 µM) | – | –
C/C(S)=N/NC[C@H]1CN(c2ccc(OCCN3CCCCC3)c(F)c2)C(=O)O1 | 8 (≈ 19.5 µM) | 8 (≈ 19.5 µM) | 4 (≈ 9.74 µM) | 4 (≈ 9.74 µM) | 2 (≈ 4.87 µM) | 8 (≈ 19.5 µM) | – | – | –
CC(=O)NNC[C@H]1CN(c2ccc(OCCN3CCSCC3)c(F)c2)C(=O)O1 | 16 (≈ 38.8 µM) | 16 (≈ 38.8 µM) | 4 (≈ 9.7 µM) | 16 (≈ 38.8 µM) | 4 (≈ 9.7 µM) | 16 (≈ 38.8 µM) | – | – | –
C/C(S)=N/NC[C@H]1CN(c2ccc(OCCN3CCSCC3)c(F)c2)C(=O)O1 | 2 (≈ 4.67 µM) | 1 (≈ 2.33 µM) | 2 (≈ 4.67 µM) | 2 (≈ 4.67 µM) | 0.5 (≈ 1.17 µM) | 2 (≈ 4.67 µM) | – | – | –
CC(=O)NNC[C@H]1CN(c2ccc(OCCN3CCOCC3)c(F)c2)C(=O)O1 | 16 (≈ 40.4 µM) | 16 (≈ 40.4 µM) | 4 (≈ 10.1 µM) | 16 (≈ 40.4 µM) | 4 (≈ 10.1 µM) | 16 (≈ 40.4 µM) | – | – | –
CC(=O)NNC[C@H]1CN(c2ccc(OCCN3CCCCC3)cc2)C(=O)O1 | – | > 32 | > 32 | > 32 | > 32 | > 32 | – | – | –
CO/C(S)=N/NC[C@H]1CN(c2ccc(OCCN3CCSCC3)c(F)c2)C(=O)O1 | 4 (≈ 9 µM) | 1 (≈ 2.25 µM) | 2 (≈ 4.5 µM) | 2 (≈ 4.5 µM) | – | 4 (≈ 9 µM) | – | 1 (≈ 2.25 µM) | –
CC(=O)NNC[C@H]1CN(c2ccc(OCCO)c(F)c2)C(=O)O1 | – | 16 (≈ 48.9 µM) | – | 16 (≈ 48.9 µM) | – | 8 (≈ 24.4 µM) | 16 (≈ 48.9 µM) | 8 (≈ 24.4 µM) | –
CC(=O)NNC[C@H]1CN(c2ccc(OCCN3CCCC3)cc2)C(=O)O1 | – | > 32 | > 32 | > 32 | 32 (≈ 88.3 µM) | > 32 | – | – | –
CC(=O)NNC[C@H]1CN(c2ccc(OCCN3CCOCC3)cc2)C(=O)O1 | – | > 32 | > 32 | > 32 | > 32 | > 32 | – | – | –
CN[C@H](CC(C)C)C(=O)N[C@H]1C(=O)N[C@@H](CC(N)=O)C(=O)N[C@H]2C(=O)N[C@H]3C(=O)N[C@H](C(=O)N[C@H](C(=O)O)c4cc(O)cc(O)c4-c4cc3ccc4O)[C@H](O)c3ccc(c(Cl)c3)Oc3cc2cc(c3O[C@@H]2O[C@H](CO)[C@@H](O)[C@H](O)[C@H]2O[C@H]2C[C@](C)(N)[C@H](O)[C@H](C)O2)Oc2ccc(cc2Cl)[C@H]1O [VANCOMYCIN] | – | 2 (≈ 1.38 µM) | > 32 | > 32 | – | – | – | – | –
CO/C(S)=N/NC[C@H]1CN(c2ccc(OCCN3CCOCC3)c(F)c2)C(=O)O1 | 4 (≈ 9.34 µM) | 2 (≈ 4.67 µM) | 2 (≈ 4.67 µM) | 4 (≈ 9.34 µM) | 2 (≈ 4.67 µM) | 4 (≈ 9.34 µM) | – | – | –
C/C(S)=N/NC[C@H]1CN(c2ccc(OCCN3CCOCC3)c(F)c2)C(=O)O1 | 2 (≈ 4.85 µM) | 2 (≈ 4.85 µM) | 2 (≈ 4.85 µM) | 2 (≈ 4.85 µM) | 1 (≈ 2.42 µM) | – | – | – | 2 (≈ 4.85 µM)

Reference: ChEMBL document CHEMBL1136452, “Influence of ethylene-oxy spacer group on the activity of linezolid: synthesis of potent antibacterials possessing a thiocarbonyl group” (2003)
